Experimental data as given in patent publication US20130310384A1, “Sulfonamide-Containing Compounds” (THE BRIGHAM AND WOMEN'S HOSPITAL, INC., priority 2010, published 2013).

test system: Human Aβ38, Aβ40 and Aβ42 levels; assay: Acute in vivo efficacy study in hAPPSL transgenic mice (Aβ levels by immunosorbent assay); details: 6-month-old female hAPPSL Tg mice, oral b.i.d. 50 and 100 mg/kg, 7 consecutive days; p<0.01
Procedure: (§1) A preliminary acute efficacy study in 6-month-old female hAPPSL transgenic (Tg) mice (Rockenstein, E., Mallory, M., Mante, M., Sisk, A., and Masliah, E. (2001) J Neurosci Res 66, 573-582) was completed on the compound of Example 1. Mice were treated orally (b.i.d.) with two doses, 50 mg/kg (n=4) and 100 mg/kg (n=4) for 7 consecutive days. […] Human Aβ38, Aβ40 and Aβ42 levels were determined in the cortex, hippocampus, and cerebral spinal fluid (CSF) by an immunosorbent assay.

Structure (SMILES) | Reduction of Aβ40 in the hippocampus
CC[C@@H](c1ccccc1)N(Cc1ccc(C(=O)O)cc1)S(=O)(=O)c1ccc(Cl)cc1 [Example 1, (S)-4-((4-Chloro-N-(1-phenylpropyl)phenylsulfonamido)methyl)benzoic acid] | Statistically significant reductions

same assay, conditions: 6-month-old female hAPPSL Tg mice, oral b.i.d. 50 and 100 mg/kg, 7 consecutive days; p<0.05

Structure (SMILES) | Reduction of Aβ38 in the hippocampus
CC[C@@H](c1ccccc1)N(Cc1ccc(C(=O)O)cc1)S(=O)(=O)c1ccc(Cl)cc1 [Example 1, (S)-4-((4-Chloro-N-(1-phenylpropyl)phenylsulfonamido)methyl)benzoic acid] | Statistically significant reductions

test system: not listed separately; assay: Tolerability in the acute in vivo study (7 consecutive days, oral b.i.d.); details: 100 mg/kg b.i.d. for 7 consecutive days, transgenic and nontransgenic mice
From the text: [VIII] Embodiments can include any one or more of the following advantages. […] Selective inhibition of the cleavage of APP relative to that of the Notch receptor is believed to minimize certain unwanted side effects, such as lymphopoiesis and intestinal cell differentiation. […] This is an indication that there could be a minimization of side effects with these types of compounds
as §1

Structure (SMILES) | Toxicity in in vivo efficacy study
CC[C@@H](c1ccccc1)N(Cc1ccc(C(=O)O)cc1)S(=O)(=O)c1ccc(Cl)cc1 [Example 1, (S)-4-((4-Chloro-N-(1-phenylpropyl)phenylsulfonamido)methyl)benzoic acid] | no toxicity was observed

same assay, conditions: hAPPSL Tg mice, oral b.i.d. 50 and 100 mg/kg, 7 consecutive days

Structure (SMILES) | Adverse side effects on any organ compared to vehicle controls | Mortality during treatment
CC[C@@H](c1ccccc1)N(Cc1ccc(C(=O)O)cc1)S(=O)(=O)c1ccc(Cl)cc1 [Example 1, (S)-4-((4-Chloro-N-(1-phenylpropyl)phenylsulfonamido)methyl)benzoic acid] | no obvious adverse side effects | No mice died

test system: not given; assay: not given; details: not given

Structure (SMILES) | melting point [°C]
CCC(CC)N(Cc1ccc(S(C)(=O)=O)cc1)S(=O)(=O)c1ccc(Cl)cc1 [Example 31, 4-Chloro-N-(4-(methylsulfonyl)benzyl)-N-(pentan-3-yl)benzenesulfonamide] | 166 to 168
CCC(CC)N(Cc1ccc(C#N)cc1F)S(=O)(=O)c1ccc(F)cc1 [Example 36, N-(4-Cyano-2-fluorobenzyl)-4-fluoro-N-(pentan-3-yl)benzenesulfonamide] | 102 to 104
CC[C@@H](c1ccc(C#N)cc1)N(Cc1ccc(C#N)cc1)S(=O)(=O)c1ccc(Cl)cc1 [Example 84, (S)-4-Chloro-N-(4-cyanobenzyl)-N-(1-(4-cyanophenyl)propyl)benzenesulfonamide] | 120 to 121
CC[C@@H](c1ccccc1)N(Cc1ccc(C(=O)NC[C@H](C)O)cc1)S(=O)(=O)c1ccc(Cl)cc1 [Example 80, 4-((4-Chloro-N—((S)-1-phenylpropyl)phenylsulfonamido)methyl)-N-((S)-2-hydroxypropyl)benzamide] | 78 to 80
CCC(CC)N(Cc1ccc(C(=O)OC)cc1)S(=O)(=O)c1ccc(C)cc1 [Example 35, Methyl 4-((4-methyl-N-(pentan-3-yl)phenylsulfonamido)methyl)benzoate] | 106 to 108
CC[C@@H](c1ccc(C(F)(F)F)cc1)N(Cc1ccc(C(=O)OC)cc1)S(=O)(=O)c1ccc(Cl)cc1 [Example 122, (S)-Methyl 4-((4-chloro-N-(1-(4-(trifluoromethyl)phenyl)propyl)phenylsulfonamido)methyl)benzoate] | 123 to 125
CC[C@@H](c1ccccc1)N(Cc1ccc(C(=O)O)cc1F)S(=O)(=O)c1ccc(Cl)cc1 [Example 52, (S)-4-((4-Chloro-N-(1-phenylpropyl)phenylsulfonamido)methyl)-3-fluorobenzoic acid] | 118 to 120
CCC(CC)N(Cc1ccc(C#N)nc1)S(=O)(=O)c1ccc(Cl)cc1 [Example 72] | 108 to 110
CCC(c1ccc(Cl)nc1)N(Cc1ccc(C(=O)O)cc1)S(=O)(=O)c1ccc(Cl)cc1 (stereo not drawn) [Example 89, 4-((4-Chloro-N-(1-(6-chloropyridin-3-yl)propyl)phenylsulfonamido)methyl)benzoic acid] | 111 to 113
CCC(CC)N(Cc1ccc(C(=O)O)cn1)S(=O)(=O)c1ccc(F)cc1 [Example 37, 6-((4-Fluoro-N-(pentan-3-yl)phenylsulfonamido)methyl)nicotinic acid] | 145 to 147
COC(=O)c1ccc(CN(C(C)C)S(=O)(=O)c2ccc(F)cc2)cc1 [Example 45, Methyl 4-((4-fluoro-N-isopropylphenylsulfonamido)methyl)benzoate] | 118 to 120
CC[C@@H](c1ccccc1)N(Cc1cccc(C(=O)O)c1)S(=O)(=O)c1ccc(Cl)cc1 [Example 59, (S)-3-((4-Chloro-N-(1-phenylpropyl)phenylsulfonamido)methyl)benzoic acid] | 65 to 67
CC[C@@H](c1ccccc1)N(Cc1ccc(C(=O)O)c(F)c1F)S(=O)(=O)c1ccc(Cl)cc1 [Example 127, (S)-4-((4-Chloro-N-(1-phenylpropyl)phenylsulfonamido)methyl)-2,3-difluorobenzoic acid] | 127 to 129
CC[C@@H](c1ccccc1)N(Cc1ccc(C(=O)OC)c(F)c1F)S(=O)(=O)c1ccc(Cl)cc1 [Example 124, (S)-Methyl 4-((4-chloro-N-(1-phenylpropyl)phenylsulfonamido)methyl)-2,3-difluorobenzoate] | 87 to 89
COc1ccc(CN([C@@H](CO)c2ccccc2)S(=O)(=O)c2ccc(Cl)cc2)cc1C(=O)O [Example 134, (R)-5-((4-Chloro-N-(2-hydroxy-1-phenylethyl)phenylsulfonamido)methyl)-2-methoxybenzoic acid] | 79 to 80
CC(C)N(Cc1ccc(Cl)c(Cl)c1)S(=O)(=O)c1ccc(Cl)s1 [Example 43, 5-Chloro-N-(3,4-dichlorobenzyl)-N-isopropylthiophene-2-sulfonamide] | 66 to 67
